In brackets after ≈: the same amount, converted by molar mass. Entries after “also recorded” stand apart in the source; their conditions may differ. Blank lines part the entries; values can stand above or below the compound they belong to.
What was measured:
[1] = tested on: platelet aggregation (collagen); assay: Inhibitory action against platelet aggregation, inducer collagen; format: cell-based; settings: for IC50: Oryctolagus cuniculus, Platelet, collagen 10 μg/ml, rabbit PRP; for IC50 Collagen 10 μg/ml: Table 2, rabbit PRP
Protocol: (§1) Inhibitory Action against Platelet Aggregation:
(§2) (1) Materials and Method:
(§3) The sample is tested after dissolved in dimethyl sulfoxide. The preparation is conducted so as to make the final concentration of the solvent 1%. Dimethyl sulfoxide of the same concentration is used as a control. As to inducers for platelet aggregation, ADP (final concentration: 5 μm), AA (arachidonic acid) (final concentration: 150 μM) and collagen (final concentration: 10 μg/ml) are used.
(§4) (2) Preparation of platelet:
Blood is taken from total neck artery of male rabbits of 2.0-2.5 kg body weight. […] The precipitate is further centrifuged at 1600×g for 10 minutes and the resulting supernatant liquid is used as plasma with poor platelet (hereinafter abbreviated as PPP).
(§5) (3) Method for Measuring Aggregation Power:
(§6) A measuring apparatus for platelet aggregation is used and the changes in absorbancy by the aggregation with an elapse of time are recorded.
(§7) Thus, 200 microliters of PRP is taken, its difference between PPP is adjusted to a certain value, then 25 microliters of control solution or test solution is added, the mixture is stirred (1000 rpm) for 1 minutes, 25 microliters of aggregation inducer is added, and the changes in absorbancy are recorded. The inhibitory ratio is calculated from the following expression from the maximum aggregation ratio of the control (A in %) and that of the test solution (B in %): [formula]
as §3, with “μM),” for “μm),”
(§8) Blood is taken from total neck artery of male rabbits of 2.0-2.5 kg body weight. To the blood is added 1/10 volume of 3.8% citric acid solution, the mixture is gently stirred, centrifuged 1300×g for 2 minutes, and the resulting supernatant liquid is used as plasma with abundant platelet (hereinafter abbreviated as PRP). The precipitate is further centrifuged at 1600×g for 10 minutes and the resulting supernatant liquid is used as plasma with poor platelet (hereinafter abbreviated as PPP).
as §7, with “minute,” for “minutes,”

[2] = tested on: platelet aggregation (ADP); assay: Inhibitory action against platelet aggregation, inducer ADP; format: cell-based; settings: for IC50: Oryctolagus cuniculus, Platelet, ADP 5 μM, rabbit PRP; for IC50 ADP 5 μM: Table 2, rabbit PRP
Protocol: as §1, §2, §3, §4
as §8, with “sodium citrate” for “citric acid”
as §5, §6, §7
(§9) Inhibitory ratios with varied test solution concentrations are calculated and the IC50 (50% inhibitory concentration) is calculated therefrom.
as §3, with “μM),” for “μm),”
as §8
as §7, with “minute,” for “minutes,”

[3] = tested on: platelet aggregation (AA); assay: Inhibitory action against platelet aggregation, inducer arachidonic acid (AA); format: cell-based; settings: for IC50: Oryctolagus cuniculus, Platelet, AA 150 μM, rabbit PRP; for IC50 AA 150 μM: Table 2, rabbit PRP
Protocol: as §1, §2, §3, §4
as §8, with “sodium citrate” for “citric acid”
as §5, §6, §7, §9
as §3, with “μM),” for “μm),”
as §8
as §7, with “minute,” for “minutes,”

[4] = Solubility; format: physicochemical; settings: qualitative, in named solvents

- IC50 ([1]; Table 2): 1 µg/mL (≈ 2.01 µM)
- IC50 ([2]; Table 2): 3.2 µg/mL (≈ 6.44 µM)
- IC50 ([3]; Table 2): 6.2 µg/mL (≈ 12.5 µM)
Compound: CC1OC(OC2CCC(OC3CCC(OC(=O)c4ccc(Cl)cc4)OC3C)OC2C)CCC1=O (stereo not shown) [SEN-366-CB2]

- IC50 Collagen 10 μg/ml ([1]; listed as CB3): 0.053 µg/mL (≈ 0.107 µM)
- IC50 ADP 5 μM ([2]; listed as CB3): 0.29 µg/mL (≈ 0.586 µM)
- IC50 AA 150 μM ([3]; listed as CB3): 0.68 µg/mL (≈ 1.37 µM)
Compound: CC1OC(OC2CCC(OC3CCC(OC(=O)c4ccc(Cl)cc4)OC3C)OC2C)C=CC1=O (stereo not shown) [SEN-366-CB3]

- IC50 Collagen 10 μg/ml ([1]; listed as CB4): 1.7 µg/mL (≈ 3.42 µM)
- IC50 ADP 5 μM ([2]; listed as CB4): 4.2 µg/mL (≈ 8.45 µM)
- IC50 AA 150 μM ([3]; listed as CB4): > 5 µg/mL
Compound: CC1OC(OC2CCC(OC3CCC(OC(=O)c4ccc(Cl)cc4)OC3C)OC2C)CCC1=O (stereo not shown) [SEN-366-CB4]

- IC50 Collagen 10 μg/ml ([1]; listed as E1): 2.0 µg/mL (≈ 5.2 µM)
- IC50 ([2]; Table 2): 7.2 µg/mL (≈ 18.7 µM)
- IC50 ([3]; Table 2): 10.3 µg/mL (≈ 26.8 µM)
Compound: CCOC1CCC(OC2CCC(OC3C=CC(=O)C(C)O3)C(C)O2)C(C)O1 (stereo not shown) [SEN-366-E1]

- IC50 ([1]; Table 2): 22.1 µg/mL (≈ 57.2 µM)
- IC50 ([2]; Table 2): > 100 µg/mL
- IC50 ([3]; Table 2): 52 µg/mL (≈ 135 µM)
Compound: CCOC1CCC(OC2CCC(OC3CCC(=O)C(C)O3)C(C)O2)C(C)O1 (stereo not shown) [SEN-366-E2]

- IC50 Collagen 10 μg/ml ([1]; listed as E3): 4.4 µg/mL (≈ 11.4 µM)
- IC50 ADP 5 μM ([2]; listed as E3): 12.4 µg/mL (≈ 32.3 µM)
- IC50 AA 150 μM ([3]; listed as E3): 14.0 µg/mL (≈ 36.4 µM)
Compound: CCOC1CCC(OC2CCC(OC3C=CC(=O)C(C)O3)C(C)O2)C(C)O1 (stereo not shown) [SEN-366-E3]

- IC50 Collagen 10 μg/ml ([1]; listed as E4): 16.5 µg/mL (≈ 42.7 µM)
- IC50 ADP 5 μM [2]: > 100 µg/mL
- IC50 AA 150 μM ([3]; listed as E4): 65.0 µg/mL (≈ 168 µM)
Compound: CCOC1CCC(OC2CCC(OC3CCC(=O)C(C)O3)C(C)O2)C(C)O1 (stereo not shown) [SEN-366-E4]

- IC50 ([1]; Table 3): 1.5 µg/mL (≈ 6.19 µM)
- IC50 ([2]; Table 3): 9.3 µg/mL (≈ 38.4 µM)
- IC50 ([3]; Table 3): 3.4 µg/mL (≈ 14 µM)
Compound: CC1OC(OC2CCC(O)OC2C)C=CC1=O (stereo not shown) [SEN-366-F0]

- IC50 ([1]; Table 2): 5 µg/mL (≈ 14.1 µM)
- IC50 ([2]; Table 2): 12 µg/mL (≈ 33.9 µM)
- IC50 ([3]; Table 2): 27 µg/mL (≈ 76.2 µM)
Compound: CC1OC(OC2CCC(OC3CCC(=O)OC3C)OC2C)C=CC1=O (stereo not shown) [SEN-366-L1]

- IC50 ([1]; Table 2): 5.5 µg/mL (≈ 14.8 µM)
- IC50 ([2]; Table 2): 17 µg/mL (≈ 45.9 µM)
- IC50 ([3]; Table 2): 29 µg/mL (≈ 78.3 µM)
Compound: COC1CCC(OC2CCC(OC3C=CC(=O)C(C)O3)C(C)O2)C(C)O1 (stereo not shown) [SEN-366-M1]

- IC50 ([1]; Table 2): 16.3 µg/mL (≈ 43.8 µM)
- IC50 ([2]; Table 2): 55 µg/mL (≈ 148 µM)
- IC50 ([3]; Table 2): 42 µg/mL (≈ 113 µM)
Compound: COC1CCC(OC2CCC(OC3CCC(=O)C(C)O3)C(C)O2)C(C)O1 (stereo not shown) [SEN-366-M2]

- IC50 Collagen 10 μg/ml ([1]; listed as M3): 5.2 µg/mL (≈ 14 µM)
- IC50 ADP 5 μM ([2]; listed as M3): 15.0 µg/mL (≈ 40.5 µM)
- IC50 AA 150 μM ([3]; listed as M3): 25.0 µg/mL (≈ 67.5 µM)
Compound: COC1CCC(OC2CCC(OC3C=CC(=O)C(C)O3)C(C)O2)C(C)O1 (stereo not shown) [SEN-366-M3]

- IC50 Collagen 10 μg/ml ([1]; listed as M4): 18.0 µg/mL (≈ 48.3 µM)
- IC50 ADP 5 μM ([2]; listed as M4): 53.0 µg/mL (≈ 142 µM)
- IC50 AA 150 μM ([3]; listed as M4): 47.0 µg/mL (≈ 126 µM)
Compound: COC1CCC(OC2CCC(OC3CCC(=O)C(C)O3)C(C)O2)C(C)O1 (stereo not shown) [SEN-366-M4]

- IC50 ([1]; Table 1): 1.6 µg/mL (≈ 4.27 µM)
- IC50 ([2]; Table 1): 4.4 µg/mL (≈ 11.8 µM)
- IC50 ([3]; Table 1): 25 µg/mL (≈ 66.8 µM)
Compound: CC1OC(OC2CCC(OC3CCC(O)OC3C)OC2C)C(O)CC1=O (stereo not shown) [SEN-366-P]
- Solubility [4]: Soluble in water, methanol, ethanol, chloroform, acetone and ethyl acetate; also recorded: hardly soluble in petroleum ether and n-hexane

Reference: US4751217A, “Physiologically active substances named SEN-366” (Nippon Shinyaku Co., Ltd., priority 1984, dated 1988)
